Results on eight molecules are retold here after PubChem BioAssay (NCI).

Where “and” joins values, the source holds several entries; their conditions need not be identical. Equal values may be shown once.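 Test compounds were applied to cells in 96-well plates for 48 hours at 5 doses. GI50 marks 50% less growth. TGI is the concentration that stops growth completely.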

Among the test systems are MDA-MB-435; 786-0 renal; MOLT-4 leukemia; DU-145 prostate; OVCAR-4 ovarian; RPMI-8226 leukemia; HOP-62 NSCLC; UO-31 renal; NCI-H522 lung; SN12C renal.
Common to all, as to experiment: inhibition of tumour cell growth, NCI panel, 48 h

In the case of `COc1cc(/C=N/O)nc(-c2ccccn2)c1`, the GI50 in the assay on MDA-MB-435 was 0.492 µM; with 786-0 renal, 0.465 µM; in the assay on MOLT-4 leukemia, 0.281 µM; in the assay on DU-145 prostate, 0.4 µM; in the assay with OVCAR-4 ovarian, 0.255 µM; in the assay with HOP-62 NSCLC, 0.358 µM. Also, the GI50 in the assay on UO-31 renal is 0.183 µM; with NCI-H522 lung, 0.565 µM; in the assay with SN12C renal, 0.434 µM. Also, the TGI is above 100 µM in the assay with MDA-MB-435; 27.5 µM in the assay with 786-0 renal; 25.1 µM in the assay on MOLT-4 leukemia; above 75.3 µM with DU-145 prostate; above 100 µM with OVCAR-4 ovarian; above 100 µM in the assay on RPMI-8226 leukemia. In addition, the TGI in the assay on HOP-62 NSCLC was above 69.7 µM; in the assay on UO-31 renal, 6.82 µM; in the assay on NCI-H522 lung, above 100 µM; in the assay with SN12C renal it was above 44.7 µM.

Take `CCCCCC/C=C\CCCCCCCCCc1c(O)c(OC)cc(O)c1CN(C)C`: the TGI in the assay with MDA-MB-435 is 20 µM; with 786-0 renal it was 3.26 µM; in the assay with MOLT-4 leukemia it was 4.5 µM; in the assay on DU-145 prostate, 36 µM; in the assay with OVCAR-4 ovarian, 3.38 µM; in the assay with RPMI-8226 leukemia it was 7.62 µM. The TGI was 28.9 µM in the assay with HOP-62 NSCLC, 15.5 µM in the assay with UO-31 renal, 3.25 µM with NCI-H522 lung and 20.7 µM in the assay on SN12C renal.

As for `CSc1ccc(C(=O)/C=C/c2ccc(F)cc2)cc1`, the GI50 with MDA-MB-435 was 33.5 µM; in the assay on 786-0 renal it was above 100 µM; with MOLT-4 leukemia it was 33.9 µM; in the assay on DU-145 prostate, 54.8 µM; in the assay on OVCAR-4 ovarian it was 76.2 µM; in the assay on RPMI-8226 leukemia, 22.9 µM. Moreover, the GI50 in the assay with HOP-62 NSCLC was above 100 µM; with UO-31 renal it was above 100 µM; in the assay with NCI-H522 lung it was 38.9 µM; in the assay with SN12C renal, above 100 µM. Further, the TGI is 78.3 µM in the assay with MDA-MB-435; above 100 µM in the assay with 786-0 renal; 94.4 µM with MOLT-4 leukemia; above 100 µM in the assay with DU-145 prostate; above 100 µM in the assay with OVCAR-4 ovarian; 54.2 µM in the assay with RPMI-8226 leukemia. In addition, the TGI in the assay with HOP-62 NSCLC, in the assay on UO-31 renal, with NCI-H522 lung and with SN12C renal was above 100 µM throughout.

Consider `CCCCc1oc2ccccc2c1C(=O)c1cc(I)c(OCCN(CC)CC)c(I)c1`, for which the GI50 was 2.41 µM in the assay with MDA-MB-435; 1.64 µM with 786-0 renal; 1.92 µM in the assay with MOLT-4 leukemia; 5.28 µM with DU-145 prostate; 3.47 µM in the assay with OVCAR-4 ovarian; 1.92 µM with RPMI-8226 leukemia. Also, the GI50 in the assay with HOP-62 NSCLC is 2.36 µM; in the assay on UO-31 renal, 2.54 µM and 7.07 µM; in the assay with NCI-H522 lung, 1.79 µM; with SN12C renal, 3.08 µM. Further, the TGI was 6.53 µM with MDA-MB-435; 3.31 µM in the assay with 786-0 renal; 4.27 µM and 7.8 µM with MOLT-4 leukemia; 17.8 µM in the assay with DU-145 prostate; 16.2 µM and 20.9 µM with OVCAR-4 ovarian; 4.91 µM and 9.09 µM in the assay on RPMI-8226 leukemia. Further, the TGI with HOP-62 NSCLC is 6.25 µM and 30.7 µM; in the assay on UO-31 renal, 13.2 µM and 28.4 µM; in the assay with NCI-H522 lung, 3.48 µM and 12.3 µM; in the assay with SN12C renal, 14.8 µM and 27.9 µM.

As to `COc1cc(C(=O)/C=C/c2c(-c3cccs3)nc3ccccn23)cc(OC)c1OC`, the GI50 in the assay on MDA-MB-435 is 2.49 µM; in the assay with 786-0 renal, 2.31 µM; in the assay with MOLT-4 leukemia, 1.77 µM; in the assay on DU-145 prostate, 1.9 µM; with OVCAR-4 ovarian, 3.13 µM; in the assay on RPMI-8226 leukemia it was 1.23 µM. The GI50 in the assay on HOP-62 NSCLC is 2.88 µM; with UO-31 renal it was 1.07 µM; in the assay with NCI-H522 lung, 1.1 µM; in the assay with SN12C renal, 2.44 µM. Further, the TGI in the assay with MDA-MB-435 came to 9.52 µM; in the assay with 786-0 renal, 7.07 µM; with MOLT-4 leukemia, 4.39 µM; with DU-145 prostate, 4.81 µM; in the assay with OVCAR-4 ovarian, 21.6 µM; in the assay on RPMI-8226 leukemia, 3.72 µM. Also, the TGI in the assay on HOP-62 NSCLC stood at 6.75 µM; with UO-31 renal, 3.17 µM; in the assay with NCI-H522 lung it was 2.38 µM; in the assay with SN12C renal it was 27 µM.

Consider `CN(C)CCN1C(=O)c2cccc3c(-c4ccc5ncn(C6CCCCC6)c5c4)ccc(c23)C1=O`, for which the GI50 in the assay on MDA-MB-435 was 2.71 µM; in the assay with 786-0 renal it was 1.59 µM; in the assay with MOLT-4 leukemia it was 0.446 µM; with DU-145 prostate, 3.14 µM; in the assay on OVCAR-4 ovarian, 2.11 µM; with RPMI-8226 leukemia it was 1.03 µM. The GI50 in the assay with HOP-62 NSCLC is 1.69 µM; in the assay with UO-31 renal it was 1.06 µM; in the assay on NCI-H522 lung it was 1.85 µM; in the assay on SN12C renal, 1.03 µM. In addition, the TGI in the assay on MDA-MB-435 is 11.1 µM; in the assay with 786-0 renal, 12.2 µM; with MOLT-4 leukemia, 10.1 µM; with DU-145 prostate, 13.5 µM; with OVCAR-4 ovarian, 18.1 µM; in the assay with RPMI-8226 leukemia, 6.1 µM. Also, the TGI in the assay on HOP-62 NSCLC is 6.75 µM; with UO-31 renal, 2.4 µM; with NCI-H522 lung, 5.24 µM; in the assay with SN12C renal, 12.1 µM.

With `Nc1n[n+]([O-])c2cnccc2[n+]1[O-]`, the TGI in the assay with MDA-MB-435 was 38.5 µM; in the assay on 786-0 renal, above 100 µM; with MOLT-4 leukemia it was above 100 µM; in the assay on DU-145 prostate, above 100 µM; in the assay on OVCAR-4 ovarian, above 100 µM; in the assay on RPMI-8226 leukemia, above 100 µM. Moreover, the TGI with HOP-62 NSCLC, in the assay with UO-31 renal, with NCI-H522 lung and with SN12C renal was above 100 µM in each case.

With `c1cc(-c2cnn3nc(N4CCOCC4)ccc23)nc(NC2CC2)n1`, the GI50 in the assay with MDA-MB-435 was 9.94 µM; in the assay with 786-0 renal, 8.9 µM; in the assay with MOLT-4 leukemia, 13.7 µM; with DU-145 prostate, 8.66 µM; in the assay with OVCAR-4 ovarian it was 14.9 µM; in the assay on RPMI-8226 leukemia, 6.71 µM. Besides, the GI50 in the assay with HOP-62 NSCLC was 9.27 µM; in the assay on UO-31 renal, 7.12 µM; in the assay on NCI-H522 lung, 13.5 µM; in the assay on SN12C renal it was 8.83 µM. Further, the TGI in the assay with MDA-MB-435, in the assay with 786-0 renal, in the assay with MOLT-4 leukemia, in the assay on DU-145 prostate, in the assay with OVCAR-4 ovarian and with RPMI-8226 leukemia was above 25 µM throughout. Also, the TGI with HOP-62 NSCLC was above 25 µM; with UO-31 renal, above 21.4 µM; with NCI-H522 lung, above 25 µM; in the assay with SN12C renal, above 25 µM.
